In PubChem BioAssay AID1259407 (Chemical Carcinogenesis Research Information System (CCRIS), 2018) one finds mutagenic call data, which are given here for five molecules.

Active and inactive are the calls of the source. No rule for the calls is given here.

For the data set, the system named is CCRIS mutagenicity, Ames/micronucleus/aberration tests. The experiment in a line: CCRIS mutagenicity studies.
[1] abbreviates: Test System: AMES SALMONELLA TYPHIMURIUM, Strain/Indicator: TA100, Metabolic Activation: HAMSTER, LIVER, S-9, AROCLOR 1254 (10%), Method: PREINCUBATION
Where [2] appears, read: Test System: AMES SALMONELLA TYPHIMURIUM, Strain/Indicator: TA100, Metabolic Activation: NONE, Method: PREINCUBATION
[3] abbreviates: Test System: AMES SALMONELLA TYPHIMURIUM, Strain/Indicator: TA100, Metabolic Activation: RAT, LIVER, S-9, AROCLOR 1254 (10%), Method: PREINCUBATION
Where [4] appears, read: Test System: AMES SALMONELLA TYPHIMURIUM, Strain/Indicator: TA1535, Metabolic Activation: HAMSTER, LIVER, S-9, AROCLOR 1254 (10%), Method: PREINCUBATION
Where [5] appears, read: Test System: AMES SALMONELLA TYPHIMURIUM, Strain/Indicator: TA1535, Metabolic Activation: NONE, Method: PREINCUBATION
[6] abbreviates: Test System: AMES SALMONELLA TYPHIMURIUM, Strain/Indicator: TA1535, Metabolic Activation: RAT, LIVER, S-9, AROCLOR 1254 (10%), Method: PREINCUBATION
Setting [7] is: Test System: AMES SALMONELLA TYPHIMURIUM, Strain/Indicator: TA98, Metabolic Activation: NONE, Method: PREINCUBATION

For `CCCCOCC1CO1` (stereo unspecified), the mutagenic call runs as follows: under setting [1], “active; positive”; under setting [2], “active; positive”; (Test System: AMES SALMONELLA TYPHIMURIUM, Strain/Indicator: TA100, Metabolic Activation: NONE, Method: SPOT) “active; positive”; under setting [3], “active; positive”; under setting [4], “active; positive”; under setting [5], “active; positive”. Further, the mutagenic call under setting [6] is “active; positive”.
With `Cc1ncc(CO)c(CO)c1O`, the mutagenic call (Test System: AMES SALMONELLA TYPHIMURIUM, Strain/Indicator: TA97A, Metabolic Activation: NONE, Method: PREINCUBATION) is “inactive; negative”; the mutagenic call (Test System: AMES SALMONELLA TYPHIMURIUM, Strain/Indicator: TA97A, Metabolic Activation: RAT, LIVER, S-9, AROCLOR 1254, Method: PREINCUBATION) was “inactive; negative”; the mutagenic call (Test System: AMES SALMONELLA TYPHIMURIUM, Strain/Indicator: TA102, Metabolic Activation: NONE, Method: PREINCUBATION) was “inactive; negative”; the mutagenic call (Test System: AMES SALMONELLA TYPHIMURIUM, Strain/Indicator: TA102, Metabolic Activation: RAT, LIVER, S-9, AROCLOR 1254, Method: PREINCUBATION) is “inactive; negative”.
In the case of `CCCCC(C=O)CC` (stereo unspecified), the mutagenic call reads like this: (Test System: AMES SALMONELLA TYPHIMURIUM, Strain/Indicator: TA97, Metabolic Activation: HAMSTER, LIVER, S-9, AROCLOR 1254 (10%), Method: PREINCUBATION) “inactive; negative”; (Test System: AMES SALMONELLA TYPHIMURIUM, Strain/Indicator: TA97, Metabolic Activation: HAMSTER, LIVER, S-9, AROCLOR 1254 (30%), Method: PREINCUBATION) “inactive; negative”; (Test System: AMES SALMONELLA TYPHIMURIUM, Strain/Indicator: TA97, Metabolic Activation: NONE, Method: PREINCUBATION) “inactive; negative”; (Test System: AMES SALMONELLA TYPHIMURIUM, Strain/Indicator: TA97, Metabolic Activation: RAT, LIVER, S-9, AROCLOR 1254 (10%), Method: PREINCUBATION) “inactive; negative”; (Test System: AMES SALMONELLA TYPHIMURIUM, Strain/Indicator: TA97, Metabolic Activation: RAT, LIVER, S-9, AROCLOR 1254 (30%), Method: PREINCUBATION) “inactive; negative”; (Test System: AMES SALMONELLA TYPHIMURIUM, Strain/Indicator: TA98, Metabolic Activation: HAMSTER, LIVER, S-9, AROCLOR 1254 (10%), Method: PREINCUBATION) “inactive; negative”. The mutagenic call (Test System: AMES SALMONELLA TYPHIMURIUM, Strain/Indicator: TA98, Metabolic Activation: HAMSTER, LIVER, S-9, AROCLOR 1254 (30%), Method: PREINCUBATION) is “inactive; negative”; the mutagenic call under setting [7] was “inactive; negative”; the mutagenic call (Test System: AMES SALMONELLA TYPHIMURIUM, Strain/Indicator: TA98, Metabolic Activation: RAT, LIVER, S-9, AROCLOR 1254 (10%), Method: PREINCUBATION) was “inactive; negative”; the mutagenic call (Test System: AMES SALMONELLA TYPHIMURIUM, Strain/Indicator: TA98, Metabolic Activation: RAT, LIVER, S-9, AROCLOR 1254 (30%), Method: PREINCUBATION) is “inactive; negative”; the mutagenic call under setting [1] is “inactive; negative”; the mutagenic call (Test System: AMES SALMONELLA TYPHIMURIUM, Strain/Indicator: TA100, Metabolic Activation: HAMSTER, LIVER, S-9, AROCLOR 1254 (30%), Method: PREINCUBATION) was “inactive; negative”. In addition, the mutagenic call is, setting by setting: under setting [2], “inactive; negative”; under setting [3], “inactive; negative”; (Test System: AMES SALMONELLA TYPHIMURIUM, Strain/Indicator: TA100, Metabolic Activation: RAT, LIVER, S-9, AROCLOR 1254 (30%), Method: PREINCUBATION) “inactive; negative”; under setting [4], “inactive; negative”; (Test System: AMES SALMONELLA TYPHIMURIUM, Strain/Indicator: TA1535, Metabolic Activation: HAMSTER, LIVER, S-9, AROCLOR 1254 (30%), Method: PREINCUBATION) “inactive; negative”; under setting [5], “inactive; negative”. Moreover, the mutagenic call runs as follows: under setting [6], “inactive; negative”; (Test System: AMES SALMONELLA TYPHIMURIUM, Strain/Indicator: TA1535, Metabolic Activation: RAT, LIVER, S-9, AROCLOR 1254 (30%), Method: PREINCUBATION) “inactive; negative”.
Regarding `O=C(O)c1cc(Cl)ccc1Cl`, the mutagenic call reads like this: under setting [7], “inactive; negative”; (Test System: AMES SALMONELLA TYPHIMURIUM, Strain/Indicator: TA98, Metabolic Activation: RAT LIVER S-9, PCB, Method: PREINCUBATION) “inactive; negative”; under setting [2], “inactive; negative”; (Test System: AMES SALMONELLA TYPHIMURIUM, Strain/Indicator: TA100, Metabolic Activation: RAT LIVER S-9, PCB, Method: PREINCUBATION) “inactive; negative”; (Test System: AMES SALMONELLA TYPHIMURIUM, Strain/Indicator: TA104, Metabolic Activation: NONE, Method: PREINCUBATION) “inactive; negative”; (Test System: AMES SALMONELLA TYPHIMURIUM, Strain/Indicator: TA104, Metabolic Activation: RAT LIVER S-9, PCB, Method: PREINCUBATION) “inactive; negative”. The mutagenic call is, setting by setting: (Test System: E.COLI, Strain/Indicator: WP2 UVRA, Metabolic Activation: NONE, Method: PREINCUBATION) “inactive; negative”; (Test System: E.COLI, Strain/Indicator: WP2 UVRA, Metabolic Activation: RAT LIVER S-9, PCB, Method: PREINCUBATION) “inactive; negative”.
Consider `c1ccc([C@@H]2CO2)cc1`, for which the mutagenic call (Test System: AMES SALMONELLA TYPHIMURIUM, Strain/Indicator: TA100, Metabolic Activation: NONE) is “active; positive” and the mutagenic call (Test System: AMES SALMONELLA TYPHIMURIUM, Strain/Indicator: TA100, Metabolic Activation: NONE, Method: STANDARD PLATE) was “active; positive”.
